Experimental findings from patent US4990531A, “Derivatives of 1-arylsulphonyl-2-pyrrolidinone and their use as medicaments” (Roussel Uclaf, priority 1988, dated 1991) are described below.

Read-outs that look alike come from different tables or passages of the source. Bounds are passed on as bounds.

The test system of one data set is isolated ileum. The data set can be described thus: Agonist action on isolated guinea-pig ileum. The note with it: negative logarithm of the dose producing 50% of maximum effect. The method, then:
(§1) The interaction of the compounds with various receptors was evaluated on the isolated ileum of a guinea-pig according to the following method.
(§2) Segments of the ileum of guinea-pigs of 2.5-3 cm were washed and immediately suspended in a bath containing 10 ml of Tyrode's solution at 37° C. and aerated with a mixture of oxygen (95%) and carbon dioxide (5%). After a stabilization period of at least 30 minutes contractions were recorded, while the preparation was maintained under constant tension of 1 g, by means of a detector connected to a polygraph. The agonistic action was evaluated by leaving the compound in contact with the isolated tissue for a period necessary to show the maximum […]; then it was washed with the Tyrode's solution. The following dose was added only after the preparation had returned to its base line. Arecoline was used as a reference product. The antagonist action was evaluated on the contractions induced by acetylcholine (1×10^-6 M), histamine (1×10^-5 M), serotonine (1×10^-6 M) and barium chloride (2×10^-4 M). […] The contact time before adding the agonist was one minute.
(§3) For each compound the does response curves are obtained with 4 to 6 different concentrations and 3 to 5 independent tests. The agonist activity is expressed by pD2 (negative logarithm of the dose which produces 50% of the maximum effect).

In data set [1] the target is T1, muscarine receptors, involved in the contractions of the colon (Rattus norvegicus, UniProt P08483).
T1 construct: segments of the colon of rats of about 2.5 cm; from tissue; host or cells: isolated rat colon segments
The data set is described as follows: Antagonist affinity and type of antagonism (Schild), isolated colon of rat. The method, then:
(§4) The following method was used: segments of the colon of rats of about 2.5 cm are washed and suspended in an insulated bath containing 10 ml of a solution of De Jalon having the following composition: (mM): NaCl 154; KCl 5.7; CaCl2 0.27; NaHCO3 5.9 and glucose 2.5. The temperature of the bath is maintained at 32° C. In these conditions, while maintaining the preparation under a tension of 1 g, the spontaneous activity of the colon is minimal. After a stabilization period of at least 30 minutes, the tension variations are recorded using an isometric transducer connected to a recorder. A series of tests was carried out to evaluate the antagonist activity in relation to the contractions induced by a maximum dose of acetylcholine. (3×10^-6 M).
For each compound the dose-response curves are obtained with 4 to 6 different concentrations and 3 to 5 independent tests.
In a second series of tests the acetylcholine is added to the bath in cumulative doses according to the van Rossum method (J. M. van Rossum, Arch, Int. Pharmacodyn. 143, 299, 1963). Having obtained two equal and consecutive dose-response curves with acetylcholine, a third dose-responsecurve is obtained in the presence of the compound (contact time of compound before acetylcholine=5 min.) Each compound was tested with 3-4 different concentrations
The antagonist affinity and the type of antagonism (competitive, non-competitive) for the muscarine receptors was calculated according to Schild's method (H. D. Schild, Brit. J. Pharmacol. 2, 189, 1947).

Data set [2] has as its system cholinomimetic effects induced by carbachol. The data set can be described thus: In vivo anticholinergic action: inhibition of carbachol-induced cholinomimetic effects. The note with it: for ED50 / ED (1 degree C): Mus musculus, ip, 0.5 h; for ED (1 degree C): rectal temperature, read-out: Body Temperature: dose able to increase by 1° C. the hypothermic effect induced by carbachol. More on the design: species or system CD1 male mice. The procedure:
The anticholinergic activity of the compounds was determined by evaluating the capacity to inhibit cholinomimetic effects induced by carbachol. Atropine sulphate was used as reference product.
CD1 male mice are used weighing 25 to 30 g. They are divided into groups of 5 animals and treated by intraperitoneal route, in scaled doses, with the products or with 0.25% of Methocel for the controls. 10 animals are used for each dose. 30 minutes after the administration of the compounds, the mice are subcutaneously injected with 1 mg/kg of carbachol, dissolved in physiological serum.
Each animal was examined 30 minutes after the injection of carbachol to evaluate the presence of diarrhea, salivation and watering of the eyes; the body temperature was also measured using a thermocouple inserted 1.5 cm into the rectum.
For each compound, there was determined, and recorded in the following table, the dose able to inhibit, in 50% of the animals, the appearance of peripheral cholinomimetic symptoms induced by carbachol, and to increase by 1° C. the hypothermic effect induced by the cholinergic agent.

Data set [3] relates to contractions induced by acetylcholine, isolated colon. The data set is described as follows: Antagonism of acetylcholine-induced contractions, isolated colon of rat. The settings on record: acetylcholine 3×10^-6 M; contact 3 minutes. The method, then: The remarkable antagonist action of the compounds of the invention was confirmed on the isolated colon of rats. In this test it was established whether the antagonist activity was of competitive or non-competitive type.
as §4
The compounds are left in contact with the preparation for 3 minutes before adding acetylcholine.
Atropine was used as a reference product. For each compound the dose-response curves are obtained with 4 to 6 different concentrations and 3 to 5 independent tests.

Data set [4] has as its system contractions induced by acetylcholine, isolated ileum. The data set can be described thus: Antagonism of acetylcholine-induced contractions, isolated guinea-pig ileum. The settings on record: acetylcholine 1×10^-6 M; contact time one minute; read-out: Antagonism with various agents (IC50): Ach. The procedure: as §1, §2, §3
Data set [5] can be described thus: Solubility in various solvents. Format: physicochemical.
In data set [6] the test system is contractions induced by barium chloride, isolated ileum. The data set is described as follows: Antagonism of barium chloride-induced contractions, isolated guinea-pig ileum. The settings on record: barium chloride 2×10^-4 M; contact time one minute; read-out: Antagonism with various agents (IC50): BaCL2. The procedure: as §1, §2, §3
Where [7] appears, read: i.p., carbachol 1 mg/kg s.c. 30 min later, read-out: dose able to inhibit, in 50% of the animals, Diarrhea.
[8] abbreviates: i.p., carbachol 1 mg/kg s.c. 30 min later, read-out: dose able to inhibit, in 50% of the animals, Salivation.
The mark [9] stands for this setting: i.p., carbachol 1 mg/kg s.c. 30 min later, read-out: dose able to inhibit, in 50% of the animals, Watering of Eyes.
The mark [10] stands for this setting: i.p., carbachol 1 mg/kg s.c. 30 min later.

T1 sequence (P08483 whole entry): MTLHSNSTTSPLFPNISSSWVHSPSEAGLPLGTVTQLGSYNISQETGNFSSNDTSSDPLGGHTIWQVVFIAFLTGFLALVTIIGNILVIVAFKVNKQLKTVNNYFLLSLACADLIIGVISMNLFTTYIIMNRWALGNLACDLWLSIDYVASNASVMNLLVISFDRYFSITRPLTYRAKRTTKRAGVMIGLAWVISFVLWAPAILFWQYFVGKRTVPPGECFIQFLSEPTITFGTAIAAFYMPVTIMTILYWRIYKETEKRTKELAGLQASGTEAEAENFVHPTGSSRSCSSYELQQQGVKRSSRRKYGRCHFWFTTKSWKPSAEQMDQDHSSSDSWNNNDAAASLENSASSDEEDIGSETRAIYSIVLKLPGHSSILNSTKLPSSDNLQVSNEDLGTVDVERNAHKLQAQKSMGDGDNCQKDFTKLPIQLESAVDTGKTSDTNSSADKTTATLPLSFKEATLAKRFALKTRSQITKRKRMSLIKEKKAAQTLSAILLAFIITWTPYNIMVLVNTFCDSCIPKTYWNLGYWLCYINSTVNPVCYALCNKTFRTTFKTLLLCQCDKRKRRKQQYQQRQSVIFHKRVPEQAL

`COC(=O)C1=CCCN(C)C1` [Arecoline, reference compound]: the “Agonist Action (pD2)” value in the data set with isolated ileum amounted to 6.68.

In the case of `CN1[C@@H]2CC[C@H]1C[C@@H](OC(=O)C(CO)c1ccccc1)C2` (stereo partly shown) [Atropine, reference compound], in data set [1] (cumulative acetylcholine, Schild's method, contact 5 min), the “"Slope" of Schild plot, isolated colon of rat” value turned out to be 0.97. In addition, the “displacement of the dose-response curve of acetylcholine” value in data set [1] (isolated colon of rat, in words) is “parallel displacement towards the right of the dose-response curve of acetyl-choline without reducing the maximum contraction”. The ED50 came to 0.04 mg/kg in data set [2] (read-out: dose able to inhibit, in 50% of the animals, Diarrhea); 0.06 mg/kg in data set [2] (read-out: dose able to inhibit, in 50% of the animals, Salivation); 0.05 mg/kg in data set [2] (read-out: dose able to inhibit, in 50% of the animals, Watering of Eyes). Further, the IC50 worked out at 0.027 µM in data set [3] and 0.0095 µM in data set [4].

Consider `CN(C)c1ccc(S(=O)(=O)N2CCCC2=O)cc1` [Example 3], for which the solubility entry is “insoluble” in data set [5] (2N hydrochloric acid); “insoluble” in data set [5] (2N sodium hydroxide); “slightly soluble” in data set [5] (acetone); “slightly soluble” in data set [5] (alcohol at 95°); “slightly soluble” in data set [5] (benzene); “Soluble” in data set [5] (chloroform). The solubility result in data set [5] (ethyl ether) and in data set [5] (water) was “insoluble” in each case.

Regarding `O=C1CCCN1S(=O)(=O)c1ccc(N2CCCCC2)cc1` [Example 10, 1-[4-(1-piperidinyl)phenylsulphonyl]-2-pyrrolidinone], the ED50 in data set [2] (setting [7]) is 3 mg/kg; in data set [2] (setting [8]) it was 50 mg/kg; in data set [2] (setting [9]) it was > 50 mg/kg. Moreover, in data set [2] (setting [10]), the ED (1 degree C) was > 50 mg/kg. For the same molecule, the “selective anticholinergic action in vivo” value in data set [2] (i.p., mice, in words) is recorded as “selective anticholinergic action on the intestinal musculature”.

Consider `O=C1CCCN1S(=O)(=O)c1ccc(N2CCCCCC2)cc1` [Example 18, 1-[4-(4-hexahydroazepin)phenylsulphonyl]-2-pyrrolidinone], for which the ED50 is 1 mg/kg in data set [2] (setting [7]), 15 mg/kg in data set [2] (setting [8]) and 50 mg/kg in data set [2] (setting [9]). Besides, the ED (1 degree C) in data set [2] (setting [10]) came to 15 mg/kg.

Turning to `COc1ccc(Cc2nccc3cc(OC)c(OC)cc23)cc1OC` [Papaverine, reference compound], the 50% inhibitory concentration (IC50) in data set [6] was found to be 45 µM.

Consider `C[N+](C)(C)CCOC(N)=O` [carbachol, reference compound], for which the “decrease in rectal temperature” value in data set [2] (carbachol 1 mg/kg s.c., control mice) was “about 2.5 °C”. For the same molecule, the “induction of diarrhea, salivation and watering of the eyes” value in data set [2] (carbachol 1 mg/kg s.c., control mice, in words) was “induced diarrhea, salivation and watering of the eyes in all the control mice”.
